Values quoted from earlier work in patent US10342816B2, “Aqueous ophthalmic formulations based on azithromycin” (MEDIVIS S.R.L., priority 2013, dated 2019).

Tests used:
[1] = aqueous solution, phosphate buffer, low ionic strength
[2] = pharmacopoeia

SMILES: CC[C@H]1OC(=O)[C@H](C)[C@@H](O[C@H]2CC(C)(OC)[C@@H](O)C(C)O2)[C@H](C)[C@@H](O[C@@H]2OC(C)CC(N(C)C)C2O)[C@](C)(O)C[C@@H](C)CN(C)[C@H](C)[C@@H](O)[C@]1(C)O (some centres unmarked) [azithromycin]
- pH at which the kinetics of the hydrolytic phenomenon has the minimum value [1]: 6.3
- solubility in water [2]: poorly soluble in water
